According to patent publication US6569461B1, “Dihydroxy open-acid and salts of HMG-CoA reductase inhibitors” (Merck & Co., Inc., priority 1999, dated 2003):

How the values were obtained:
[1] = Plasma total and active HMG-CoA reductase inhibitory activity (enzymatic assay) in open, randomized, four-period crossover study with or without itraconazole; details: human, in vivo
Procedure: (§1) Intraduodenal administration was accomplished via a nasoduodenal tube placed under fluoroscopic guidance by an experienced gastroenterologist just prior to dosing and removed following the 1-hr postdose measurements.
(§2) All calculations were based on designated sampling times or actual sampling times when they differed from the designated times by more than 10 minutes.

[2] = human, in vivo
Procedure: as §1, §2

CCC(C)(C)C(=O)O[C@H]1C[C@@H](C)C=C2C=C[C@H](C)[C@H](CC[C@@H](O)C[C@@H](O)CC(=O)O)[C@H]21 [SVA, dihydroxy open acid simvastatin]
AUC, Active Inhibitors [1]: 54.1 ± 28.5 ng eq·hr/mL
Cmax, Active Inhibitors [1]: 5.7 ± 3.0 ng eq/mL
change by itraconazole pretreatment in AUC and Cmax of HMG-CoA reductase inhibitory activity (total or active) ([1]; male): 1.3-1.5 fold
effect of itraconazole on apparent t1/2 values [2]: essentially unchanged
effect of itraconazole measured as the unchanged drug ([2]; male): 1.5 fold
